Data as given in US20250282785A1, “PYRROLIDINONE DERIVATIVES AS INHIBITORS OF NF KAPPA B INDUCING KINASE” (priority 2022, published 2025).

Tests used:
[1] = target: Recombinant Human NF-Kappab-Inducing Kinase (NIK/MAP3K14) (Homo sapiens, UniProt Q99558); assay: Inhibition of auto-phosphorylation of recombinant human NIK/MAP3K14 (AlphaScreen); assay type: biochemical; settings: NIK/MAP3K14 auto-phosphorylation, 5 microM ATP, 1 nM enzyme, 2 h at 25° C.; average of values; read-out: Assay 1 IC50
How it was run: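 AlphaScreen read-out used anti-phospho-IKK Ser176/180 antibody after 2 h, 25 °C incubation of compound, 1 nM GST-NIK and 5 µM ATP (final DMSO 0.7%). Percent inhibition referenced to high (enzyme) and low (no enzyme, no ATP) controls; sigmoidal curve fitting gave IC50.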

[2] = tested on: p-IKKα levels in L363 (NIK translocated multiple myeloma) cells; assay: Effect of compounds on p-IKKα levels in L363 cells (AlphaLISA SureFire Ultra); assay type: cell-based; settings: Homo sapiens, L-363; L363 cells, BAFF stimulated, MG132, 6 h; average of values; read-out: Assay 2 IC50
How it was run: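 Phospho-IKKα (Ser 176/180) was quantified by AlphaLISA in lysed L363 cells after 6 h compound exposure (0.3% DMSO, 11 points, 1:3) alongside 250 ng/ml BAFF and 10 uM MG132, following overnight BAFF priming in low-serum DMEM. Duplicate curves were scaled between BAFF/DMSO/MG132 and unstimulated DMSO wells, then fitted sigmoidally for IC50.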

Chain of Recombinant Human NF-Kappab-Inducing Kinase (NIK/MAP3K14) (Q99558 whole entry): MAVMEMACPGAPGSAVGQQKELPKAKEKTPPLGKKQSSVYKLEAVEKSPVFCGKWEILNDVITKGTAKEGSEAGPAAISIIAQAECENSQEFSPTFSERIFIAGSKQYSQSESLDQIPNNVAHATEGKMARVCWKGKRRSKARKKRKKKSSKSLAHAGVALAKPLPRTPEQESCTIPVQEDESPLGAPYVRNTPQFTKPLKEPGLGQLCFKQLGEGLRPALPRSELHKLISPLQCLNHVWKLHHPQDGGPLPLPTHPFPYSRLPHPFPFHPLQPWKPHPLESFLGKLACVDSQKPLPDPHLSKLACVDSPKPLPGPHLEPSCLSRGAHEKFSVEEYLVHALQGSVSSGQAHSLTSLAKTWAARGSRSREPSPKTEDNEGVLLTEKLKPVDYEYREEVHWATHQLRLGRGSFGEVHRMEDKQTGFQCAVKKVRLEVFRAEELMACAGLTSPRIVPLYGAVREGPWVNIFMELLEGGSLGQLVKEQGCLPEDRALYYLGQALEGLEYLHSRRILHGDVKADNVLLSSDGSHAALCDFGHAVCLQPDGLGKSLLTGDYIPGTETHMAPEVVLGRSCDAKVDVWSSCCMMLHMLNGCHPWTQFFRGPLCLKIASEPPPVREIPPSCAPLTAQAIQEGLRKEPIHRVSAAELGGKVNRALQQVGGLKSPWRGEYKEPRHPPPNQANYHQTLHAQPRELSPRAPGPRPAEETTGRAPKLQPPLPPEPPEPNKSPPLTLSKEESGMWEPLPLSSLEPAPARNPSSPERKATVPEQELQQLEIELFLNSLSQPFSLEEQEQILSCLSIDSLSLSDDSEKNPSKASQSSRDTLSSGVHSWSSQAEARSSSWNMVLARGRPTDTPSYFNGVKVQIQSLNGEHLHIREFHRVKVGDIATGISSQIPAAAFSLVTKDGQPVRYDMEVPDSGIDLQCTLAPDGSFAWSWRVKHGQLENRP

SMILES | IC50 [1] | IC50 [2]
COc1cc(-c2cccc(-c3cc([C@]4(O)CCN(C)C4=O)on3)c2)nc2c(N)ncnc12 [Example 118, (R)-3-(3-(3-(4-Amino-8-methoxypyrido[3,2-d]pyrimidin-6-yl)phenyl)isoxazol-5-yl)-3-hydroxy-1-methylpyrrolidin-2-one] | < 0.1 µM | 0.1 to 0.5 µM
COc1cc(-c2cc(-c3cc([C@@]4(O)C(=O)N(C)CC4(F)F)on3)ccc2F)nc2c(N)ncnc12 [Example 119, (R)-3-(3-(3-(4-Amino-8-methoxypyrido[3,2-d]pyrimidin-6-yl)-4-fluorophenyl)isoxazol-5-yl)-4,4-difluoro-3-hydroxy-1-methylpyrrolidin-2-one] | < 0.1 µM | 0.1 to 0.5 µM
COc1cc(-c2cc(-c3cc([C@]4(O)CCN(C)C4=O)on3)ccc2F)nc2c(N)ncnc12 [Example 120, (R)-3-(3-(3-(4-Amino-8-methoxypyrido[3,2-d]pyrimidin-6-yl)-4-fluorophenyl)isoxazol-5-yl)-3-hydroxy-1-methylpyrrolidin-2-one] | < 0.1 µM | > 0.501 µM
CN1CC[C@@](O)(c2cc(-c3ccc(F)c(-c4ncc(NC5COC5)c(C(N)=O)n4)c3)no2)C1=O [Example 121, (R)-2-(2-Fluoro-5-(5-(3-hydroxy-1-methyl-2-oxopyrrolidin-3-yl)isoxazol-3-yl)phenyl)-5-(oxetan-3-ylamino)pyrimidine-4-carboxamide] | < 0.1 µM | 0.1 to 0.5 µM
Cc1c(-c2cccc(-c3cc([C@]4(O)CCN(C)C4=O)on3)c2)nc(C(N)=O)n1C1CC1 [Example 122, (R)-1-Cyclopropyl-4-(3-(5-(3-hydroxy-1-methyl-2-oxopyrrolidin-3-yl)isoxazol-3-yl)phenyl)-5-methyl-1H-imidazole-2-carboxamide] | 0.1 to 0.5 µM | > 0.501 µM
Cc1nc(-c2cc(-c3cc([C@@]4(O)C(=O)N(C)CC4(F)F)on3)cc(F)c2F)nc2c(N)ncnc12 [Example 123, (R)-3-(3-(3-(8-amino-4-methylpyrimido[5,4-d]pyrimidin-2-yl)-4,5-difluorophenyl)isoxazol-5-yl)-4,4-difluoro-3-hydroxy-1-methylpyrrolidin-2-one] | < 0.1 µM | 0.1 to 0.5 µM
CN1CC[C@@](O)(c2cc(-c3cccc(-c4cc5c(c(C(N)=O)n4)CCCC5)c3)no2)C1=O [Example 124, (R)-3-(3-(5-(3-Hydroxy-1-methyl-2-oxopyrrolidin-3-yl)isoxazol-3-yl)phenyl)-5,6,7,8-tetrahydroisoquinoline-1-carboxamide] | < 0.1 µM | > 0.501 µM
CN1CC[C@@](O)(c2cc(-c3cccc(-c4nc5c(c(C(N)=O)n4)CCCC5)c3)no2)C1=O [Example 125, (R)-2-(3-(5-(3-Hydroxy-1-methyl-2-oxopyrrolidin-3-yl)isoxazol-3-yl)phenyl)-5,6,7,8-tetrahydroquinazoline-4-carboxamide] | < 0.1 µM | > 0.501 µM
CN1CC[C@@](O)(c2cc(-c3cccc(-c4ncc(N)c(C(=O)N[C@H]5CCOC5)n4)c3)no2)C1=O [Example 126, 5-Amino-2-(3-(5-((R)-3-hydroxy-1-methyl-2-oxopyrrolidin-3-yl)isoxazol-3-yl)phenyl)-N—((S)-tetrahydrofuran-3-yl)pyrimidine-4-carboxamide] | < 0.1 µM | > 0.501 µM
CN1CC[C@@](O)(c2cc(-c3cccc(-c4ncc(N[C@H]5CCOC5)c(C(N)=O)n4)c3)no2)C1=O [Example 127, 2-(3-(5-((R)-3-hydroxy-1-methyl-2-oxopyrrolidin-3-yl)isoxazol-3-yl)phenyl)-5-(((S)-tetrahydrofuran-3-yl)amino)pyrimidine-4-carboxamide] | < 0.1 µM | < 0.1 µM
CN1CC[C@@](O)(c2cc(-c3cccc(-c4ncc(N)c(C(=O)N[C@@H]5CCOC5)n4)c3)no2)C1=O [Example 128, 5-Amino-2-(3-(5-((R)-3-hydroxy-1-methyl-2-oxopyrrolidin-3-yl)isoxazol-3-yl)phenyl)-N—((R)-tetrahydrofuran-3-yl)pyrimidine-4-carboxamide] | < 0.1 µM | > 0.501 µM
CN1CC[C@@](O)(c2cc(-c3cccc(-c4ncc(N[C@@H]5CCOC5)c(C(N)=O)n4)c3)no2)C1=O [Example 129, 2-(3-(5-((R)-3-hydroxy-1-methyl-2-oxopyrrolidin-3-yl)isoxazol-3-yl)phenyl)-5-(((R)-tetrahydrofuran-3-yl)amino)pyrimidine-4-carboxamide] | < 0.1 µM | < 0.1 µM
CN1CC[C@@](O)(c2cc(-c3cccc(-c4ncc(Nc5ccn(C)n5)c(C(N)=O)n4)c3)no2)C1=O [Example 130, (R)-2-(3-(5-(3-Hydroxy-1-methyl-2-oxopyrrolidin-3-yl)isoxazol-3-yl)phenyl)-5-((1-methyl-1H-pyrazol-3-yl)amino)pyrimidine-4-carboxamide] | < 0.1 µM | < 0.1 µM
CN1CC[C@@](O)(c2cc(-c3cccc(-c4cc(N[C@H]5CCOC5)cc(C(N)=O)n4)c3)no2)C1=O [Example 131, 6-(3-(5-((R)-3-Hydroxy-1-methyl-2-oxopyrrolidin-3-yl)isoxazol-3-yl)phenyl)-4-(((S)-tetrahydrofuran-3-yl)amino)picolinamide] | > 0.501 µM | > 0.501 µM
CN1CC[C@@](O)(c2cc(-c3cccc(-c4nc(C(N)=O)c(N)c(C5CC5)n4)c3)no2)C1=O [Example 132, (R)-5-Amino-6-cyclopropyl-2-(3-(5-(3-hydroxy-1-methyl-2-oxopyrrolidin-3-yl)isoxazol-3-yl)phenyl)pyrimidine-4-carboxamide] | < 0.1 µM | < 0.1 µM
CN1CC[C@@](O)(c2cc(-c3cccc(-c4nc(Nc5ccn(C)n5)c(C(F)(F)F)c(C(N)=O)n4)c3)no2)C1=O [Example 133, (R)-2-(3-(5-(3-Hydroxy-1-methyl-2-oxopyrrolidin-3-yl)isoxazol-3-yl)phenyl)-6-((1-methyl-1H-pyrazol-3-yl)amino)-5-(trifluoromethyl)pyrimidine-4-carboxamide] | < 0.1 µM | > 0.501 µM
CN1CC[C@@](O)(c2cc(-c3cccc(-c4nc(C(N)=O)c5[nH]ccc5n4)c3)no2)C1=O [Example 134, (R)-2-(3-(5-(3-Hydroxy-1-methyl-2-oxopyrrolidin-3-yl)isoxazol-3-yl)phenyl)-5H-pyrrolo[3,2-d]pyrimidine-4-carboxamide] | < 0.1 µM | < 0.1 µM
CN1CC[C@@](O)(c2cc(-c3cccc(-c4ncc(N)c(C(N)=O)n4)c3)no2)C1=O [Example 135, (R)-5-Amino-2-(3-(5-(3-Hydroxy-1-methyl-2-oxopyrrolidin-3-yl)isoxazol-3-yl)phenyl)pyrimidine-4-carboxamide] | < 0.1 µM | < 0.1 µM
COc1nc(-c2cccc(-c3cc([C@]4(O)CCN(C)C4=O)on3)c2)nc(OC)c1N [Example 136, (R)-3-(3-(3-(5-Amino-4,6-dimethoxypyrimidin-2-yl)phenyl)isoxazol-5-yl)-3-hydroxy-1-methylpyrrolidin-2-one] | 0.1 to 0.5 µM | > 0.501 µM
CN1CC[C@@](O)(c2cc(-c3cccc(-c4ncc(Nc5cnn(C)c5)c(C(N)=O)n4)c3)no2)C1=O [Example 137, (R)-2-(3-(5-(3-Hydroxy-1-methyl-2-oxopyrrolidin-3-yl)isoxazol-3-yl)phenyl)-5-((1-methyl-1H-pyrazol-4-yl)amino)pyrimidine-4-carboxamide] | < 0.1 µM | < 0.1 µM
COc1ncc(-c2cccc(-c3cc([C@]4(O)CCN(C)C4=O)on3)c2)c(C(N)=O)n1 [Example 138, (R)-5-(3-(5-(3-Hydroxy-1-methyl-2-oxopyrrolidin-3-yl)isoxazol-3-yl)phenyl)-2-methoxypyrimidine-4-carboxamide] | > 0.501 µM | > 0.501 µM
CN1CC[C@@](O)(c2cc(-c3cccc(-c4cc5cc[nH]c5c(C(N)=O)n4)c3)no2)C1=O [Example 139, (R)-5-(3-(5-(3-Hydroxy-1-methyl-2-oxopyrrolidin-3-yl)isoxazol-3-yl)phenyl)-1H-pyrrolo[2,3-c]pyridine-7-carboxamide] | < 0.1 µM | < 0.1 µM
CN1CC(F)(F)[C@@](O)(c2cc(-c3ccc(F)c(-c4nc(C(N)=O)c5[nH]ccc5n4)c3)no2)C1=O [Example 140, (R)-2-(5-(5-(4,4-Difluoro-3-hydroxy-1-methyl-2-oxopyrrolidin-3-yl)isoxazol-3-yl)-2-fluorophenyl)-5H-pyrrolo[3,2-d]pyrimidine-4-carboxamide] | < 0.1 µM | < 0.1 µM
CN1CC[C@@](O)(c2cc(-c3cccc(-c4ncc(Nc5cn[nH]c5)c(C(N)=O)n4)c3)no2)C1=O [Example 141, (R)-5-((1H-Pyrazol-4-yl)amino)-2-(3-(5-(3-hydroxy-1-methyl-2-oxopyrrolidin-3-yl)isoxazol-3-yl)phenyl)pyrimidine-4-carboxamide] | < 0.1 µM | < 0.1 µM
Cc1n[nH]c(C)c1Nc1cnc(-c2cccc(-c3cc([C@]4(O)CCN(C)C4=O)on3)c2)nc1C(N)=O [Example 142, (R)-5-((3,5-Dimethyl-1H-pyrazol-4-yl)amino)-2-(3-(5-(3-hydroxy-1-methyl-2-oxopyrrolidin-3-yl)isoxazol-3-yl)phenyl)pyrimidine-4-carboxamide] | < 0.1 µM | 0.1 to 0.5 µM
CN1CC[C@@](O)(c2cc(-c3cccc(-c4cc5cn[nH]c5c(C(N)=O)n4)c3)no2)C1=O [Example 143, (R)-5-(3-(5-(3-hydroxy-1-methyl-2-oxopyrrolidin-3-yl)isoxazol-3-yl)phenyl)-1H-pyrazolo[3,4-c]pyridine-7-carboxamide] | < 0.1 µM | < 0.1 µM
